Reference: ChEMBL document CHEMBL1144631, “Synthesis and biological evaluation of nucleoside analogues having 6-chloropurine as anti-SARS-CoV agents” (Bioorg Med Chem Lett, 2007)
The source made the active and inactive calls. The rule behind the calls is not given here.

Key:
SARS-CoV [1] = test: microbe, parasite or virus in culture; conditions: Severe acute respiratory syndrome-related coronavirus, Frankfurt1, Vero
SARS-CoV [2] = format: functional, organism-based; conditions: Severe acute respiratory syndrome-related coronavirus; Frankfurt1; Vero; 20 uM
Vero = conditions: chlorocebus sabaeus
in vitro = conditions: chlorocebus sabaeus, Vero E6 cells
SARS-CoV [3] = format: functional, organism-based; conditions: Severe acute respiratory syndrome-related coronavirus; Frankfurt1; Vero; 50 to 70 uM

Compound | IC50 (SARS-CoV [1]) | CC50 (in vitro) | further results
OCC1CC(n2cnc3c(Cl)ncnc32)C1CO (stereo not given) | > 300 µM |  | 
OC[C@H]1O[C@@H](n2cnc3c(Cl)ncnc32)[C@H](O)[C@@H]1O |  |  | Activity (SARS-CoV [2]): Active; CC50 (Vero): 279 µM
Nc1nc(Cl)c2ncn([C@@H]3O[C@H](CO)[C@@H](O)[C@H]3O)c2n1 | > 300 µM |  | 
OC[C@H]1O[C@@H](n2cnc3c(Cl)ncnc32)C[C@@H]1O | > 300 µM |  | 
NC(=O)c1ncn([C@@H]2O[C@H](CO)[C@@H](O)[C@H]2O)n1 [RIBAVIRIN] | 82 µM | > 850 µM | 
OCC(CO)CCn1cnc2c(Cl)ncnc21 | > 300 µM |  | 
O[C@@H]1[C@H](O)[C@@H](COCc2ccccc2)O[C@H]1n1cnc2c(Cl)ncnc21 | 108 µM | 174 µM | Activity (SARS-CoV [3]): Active
CSc1ncnc2c1ncn2[C@@H]1O[C@H](CO)[C@@H](O)[C@H]1O | > 300 µM |  | 
OC[C@@H]1C[C@@H](O)[C@H](n2cnc3c(Cl)ncnc32)O1 | > 300 µM |  | 
OCC1C(COCc2ccccc2)CC1n1cnc2c(Cl)ncnc21 (stereo not given) | 14.5 µM | 78 µM | Activity (SARS-CoV [3]): Active
NC(=O)c1ncn([C@@H]2O[C@H](CO)[C@@H](O)[C@H]2O)c1O [MIZORIBINE] | 13.5 µM | > 700 µM | 
COc1ncnc2c1ncn2[C@@H]1O[C@H](CO)[C@@H](O)[C@H]1O | > 300 µM |  | 
OCC(CCn1cnc2c(Cl)ncnc21)COCc1ccccc1 (stereo not given) | > 300 µM |  | 
